# Tests used:
# [1] = system: HCT116 colon cancer cell; assay: Cell cycle analysis (Experimental Example 1), HCT116; assay type: cell-based, human; conditions: HCT116, 1 μM, 48 hours, percentage of cells in G2/M
# Experimental: (§1) Colon cancer cell of human SW620(ATCC) or HCT116 (ATCC) was transferred to T25 flask(culture 7.5 ml) by RPMI1640 (Gibco/BR) medium or DMEM medium (Gibco/BR) containing 10% FBS (fetal bovine serum), respectively. Thereafter the cell was incubated for 12 hours at 37° C. in incubator. After the cell was incubated for 12 hours, 7.5 μl of DMSO was added to a culture used as control group, for the final concentration to be 0.1%. In order to use in experiment, samples of various concentrations were prepared by dissolving the cinnamaldehyde derivatives of the present invention in DMSO. 7.5 μl of the prepared samples was added to a culture used as experimental group. Cell of control or experimental group was incubated for 48 hours.
# (§2) For cell cycle analysis, incubated cell was removed from medium. Thereafter the incubated cell was separated from the flask by trypsin. Thus the cell was centrifuged at 300 g for 5 min. The cell was washed with phosphate buffer solution (PBS) to remove the residue medium from the cell. 3 ml of ethanol (70%) was added to the cell. The cell was fixed by being positioned at −20° C. for 12 hours. The fixed cell was centrifuged at 300 g for 3 min and washed with the cold PBS for two times to remove residual ethanol. The cell solution prepared by adding 500 μl of PBS to the cell was well mixed to produce the homogeneous state. 100 μg/ml RNase A 50 μl was added to the cell solution, thereafter the resulting cell solution was positioned at 37° C. for 30 min. The chromosomal DNA was stained by further adding 1 mg/ml propidium iodide (soluble in PBS) thereto.
# (§3) Distribution of cell cycle of 20,000 stained cells were measured by using Becton-Dickinson FACS caliber (San Jose, Calif., USA).
# [2] = system: SW620 colon cancer cell; assay: Growth inhibition of SW620 colon cancer cell (GI50); assay type: cell-based, human; conditions: concentration at which growth of SW620 colon cancer cell was inhibited to the 50%
# Experimental: as §1
# (§4) HCT116 GI50 (μM) and SW620 GI50 (μM) mean to be the concentrations at which growth of HCT116 and SW620 colon cancer cell was inhibited to the 50%, respectively.
# [3] = system: HCT116 colon cancer cell; assay: Growth inhibition of HCT116 colon cancer cell (GI50); assay type: cell-based, human; conditions: concentration at which growth of HCT116 colon cancer cell was inhibited to the 50%
# Experimental: as §1, §4
# [4] = system: SW620 colon cancer cell; assay: Cell cycle analysis (Experimental Example 1), SW620; assay type: cell-based, human; conditions: SW620, 1 μM, 48 hours, percentage of cells in G2/M
# Experimental: as §1, §2, §3
"GI50 ([2]; Homo sapiens, SW-620)","GI50 ([3]; Homo sapiens, HCT-116)",melting point,GI50 [2],GI50 [3],Structure (SMILES),G2/M at 1 μM(%) HCT116 [1],G2/M at 1 μM(%) SW620 [4]
10.7 µM,4.02 µM,141 to 142 °C,,,"O=CC(=Cc1ccccc1F)C(C=O)=Cc1ccccc1F [Compound 2, 2,3-bis-(2-fluorobenzylidene)succinaldehyde]",48%,58%
0.91 µM,0.91 µM,177 to 178 °C,,,"O=CC(=Cc1ccccc1Cl)C(C=O)=Cc1ccccc1Cl [Compound 3, 2,3-bis-(2-chlorobenzylidene)succinaldehyde]",40%,47%
2.14 µM,1.05 µM,194 to 195 °C,,,"O=CC(=Cc1ccccc1Br)C(C=O)=Cc1ccccc1Br [Compound 4, 2,3-bis-(2-bromobenzylidene)succinaldehyde]",38%,36%
1.55 µM,3.72 µM,163 to 164 °C,,,"COc1ccccc1C=C(C=O)C(C=O)=Cc1ccccc1OC [Compound 5, 2,3-bis-(2-methoxybenzylidene)succinaldehyde]",55%,50%
90.6 µM,3.62 µM,107 to 108 °C,,,"O=CC(=Cc1cccc(Cl)c1)C(C=O)=Cc1cccc(Cl)c1 [Compound 6, 2,3-bis-(3-chlorobenzylidene)succinaldehyde]",60%,66%
3.53 µM,7.87 µM,177 to 178 °C,,,"COc1cc(C=C(C=O)C(C=O)=Cc2ccc(O)c(OC)c2)ccc1O [Compound 7, 2,3-bis-(4-hydroxy-3-methoxy-benzylidene)succinaldehyde]",30%,38%
10.5 µM,5.49 µM,149 to 150 °C,,,"COc1ccc(C=C(C=O)C(C=O)=Cc2ccc(OC)c(OC)c2)cc1OC [Compound 8, 2,3-bis-(3,4-dimethoxybenzylidene)succinaldehyde]",71%,75%
24.2 µM,3.62 µM,172 to 173 °C,,,"O=CC(=Cc1ccc(Cl)cc1)C(C=O)=Cc1ccc(Cl)cc1 [Compound 9, 2,3-bis-(4-chlorobenzylidene)succinaldehyde]",63%,67%
1.02 µM,1.36 µM,244 to 246 °C,,,"O=CC(=Cc1ccc(O)cc1)C(C=O)=Cc1ccc(O)cc1 [Compound 10, 2,3-bis-(4-hydroxy-benzylidene)succinaldehyde]",61%,65%
5.17 µM,1.03 µM,177 to 178 °C,,,"Cc1ccc(C=C(C=O)C(C=O)=Cc2ccc(C)cc2)cc1 [Compound 11, 2,3-bis-(4-methyl-benzylidene)succinaldehyde]",40%,44%
10.2 µM,9.62 µM,204 to 207 °C,,,"COc1ccc(C=C(C=O)C(C=O)=Cc2ccc(OC)cc2)cc1 [Compound 12, 2,3-bis-(4-methoxy-benzylidene)succinaldehyde]",59%,57%
2.11 µM,5.28 µM,109 to 110 °C,,,"CCCOc1ccccc1/C=C(C=O)/C(C=O)=C/c1ccccc1OCCC [Compound 13, 2,3-bis(2-propyloxy-benzylidene)succinaldehyde]",65%,62%
2.64 µM,5.28 µM,117 to 118 °C,,,"C=CCOc1ccccc1C=C(C=O)C(C=O)=Cc1ccccc1OCC=C [Compound 14, 2,3-bis-(2-allyloxy-benzylidene)succinaldehyde]",72%,76%
5.34 µM,5.34 µM,109 to 110 °C,,,"CC(C)Oc1ccccc1C=C(C=O)C(C=O)=Cc1ccccc1OC(C)C [Compound 15, 2,3-bis-(2-isopropyloxy-benzylidene)succinaldehyde]",70%,69%
0.54 µM,0.84 µM,186 to 187 °C,,,"O=CC(=Cc1ccccc1OCc1ccc(Cl)cc1)C(C=O)=Cc1ccccc1OCc1ccc(Cl)cc1 [Compound 17, 2,3-bis-(2-(4-chlorobenzyloxy)-benzylidene)succinaldehyde]",71%,76%
4.64 µM,2.63 µM,210 to 211 °C,,,"O=CC(=Cc1ccccc1OCc1ccc(Br)cc1)C(C=O)=Cc1ccccc1OCc1ccc(Br)cc1 [Compound 18, 2,3-bis-(2-(4-bromobenzyloxy)-benzylidene)succinaldehyde]",75%,70%
6.74 µM,2.74 µM,93 to 94 °C,,,"CCCOc1cccc(/C=C(C=O)/C(C=O)=C/c2cccc(OCCC)c2)c1 [Compound 20, 2,3-bis-(3-propyloxy-benzylidene)succinaldehyde]",72%,76%
0.61 µM,4.23 µM,116 to 117 °C,,,"CC(C)Oc1cccc(C=C(C=O)C(C=O)=Cc2cccc(OC(C)C)c2)c1 [Compound 21, 2,3-bis-(3-isopropyloxy-benzylidene)succinaldehyde]",75%,74%
3.58 µM,7.59 µM,126 to 127 °C,,,"O=CC(=Cc1cccc(OCc2ccccc2)c1)C(C=O)=Cc1cccc(OCc2ccccc2)c1 [Compound 22, 2,3-bis-(3-benzyloxy-benzylidene)succinaldehyde]",68%,65%
2.28 µM,0.62 µM,95 to 96 °C,,,"CCCOc1ccc(C=C(C=O)C(C=O)=Cc2ccc(OCCC)c(OC)c2)cc1OC [Compound 23, 2,3-bis-(4-propyloxy-3-methoxybenzylidene)succinaldehyde]",50%,56%
0.91 µM,0.71 µM,119 to 120 °C,,,"COc1cc(C=C(C=O)C(C=O)=Cc2ccc(OC(C)C)c(OC)c2)ccc1OC(C)C [Compound 24, 2,3-bis-(4-isopropyloxy-3-methoxy-benzylidene)succinaldehyde]",48%,55%
54 µM,11.2 µM,,,,"CCCCC(=O)Oc1ccc(C=C(C=O)C(C=O)=Cc2ccc(OC(=O)CCCC)c(OC)c2)cc1OC [Compound 26, 2,3-bis-(4-valeryloxy-3-methoxy-benzylidene)succinaldehyde]",46%,47%
,,,65 µM,21 µM,"CCCCC(=O)Oc1ccc(C=C(C=O)C(C=O)=Cc2ccc(OC(=O)CCCC)cc2)cc1 [Compound 30, 2,3-bis-(4-valeryoxy-benzylidene)succinaldehyde]",63%,65%

Structure (SMILES),"GI50 ([2]; Homo sapiens, SW-620)","GI50 ([3]; Homo sapiens, HCT-116)",melting point,GI50 [2],GI50 [3],G2/M at 1 μM(%) HCT116 [1],G2/M at 1 μM(%) SW620 [4]
"O=CC(=C\c1ccccc1)/C(C=O)=C/c1ccccc1 [Compound 1, 2,3-bis-benzylidenesuccinaldehyde]",1.52 µM,8.39 µM,150 to 151 °C,,,42%,45%
"O=CC(=Cc1ccccc1OCc1ccc([N+](=O)[O-])cc1)C(C=O)=Cc1ccccc1OCc1ccc([N+](=O)[O-])cc1 [Compound 19, 2,3-bis-(2-(4-nitrobenzyloxy)-benzylidene)succinaldehyde]",7.09 µM,5.19 µM,116 to 117 °C,,,32%,39%
"CCCOc1ccc(/C=C(C=O)/C(C=O)=C/c2ccc(OCCC)cc2)cc1 [Compound 28, 2,3-bis-(4-propyloxybenzylidene)succinaldehyde]",0.55 µM,0.82 µM,,,,72%,70%

# — patent US6949682B2, “Cinnamaldehyde derivatives inhibiting growth of tumor cell and regulating cell cycle, preparations and pharmaceutical compositions thereof” (Korea Research Institute of Bioscience and Biotechnology, priority 2003, dated 2005)
